Laboratory results reported in patent US6737383B1, “Herbicidal oxadiazolidines” (priority 1999, dated 2004).

Assays:
[1] = tested on: morningglory; assay: Test B pre/postemergence morningglory; type: in vivo, Ipomoea hederacea
Method in brief: (§1)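 Test chemicals in a non-phytotoxic solvent mixture with surfactant were sprayed preemergence onto planted seeds and postemergence onto plants 2 to 18 cm tall (1- to 4-leaf stage). After twelve to sixteen days in a greenhouse, injury was visually rated against untreated controls from 0 (no effect) to 10 (complete control).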

[2] = tested on: pigweed; assay: Test B pre/postemergence pigweed; type: in vivo, Amaranthus retroflexus
Method in brief: as §1

[3] = tested on: wild oat; assay: Test B pre/postemergence wild oat; type: in vivo, Avena fatua
Method in brief: as §1

[4] = tested on: Alexandergrass; assay: Test D Alexandergrass; type: in vivo, Brachiaria plantaginea; conditions: Preemergence, 0 to 100 scale
Method in brief: (§2)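 Each weed species is planted in its own pot or compartment; preemergence doses go on the sandy loam surface within a day. The formulation is a surfactant-containing, non-phytotoxic solvent blend. Ratings come from visual comparison with untreated controls 14 to 21 days later, where 100 means complete control.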

[5] = tested on: guineagrass; assay: Test D guineagrass; type: in vivo, Panicum maximum; conditions: Preemergence, 0 to 100 scale
Method in brief: as §2

[6] = tested on: Spanishneedles; assay: Test D Spanishneedles; type: in vivo, Bidens bipinnata; conditions: Preemergence, 0 to 100 scale
Method in brief: as §2

[7] = tested on: tall mallow; assay: Test D tall mallow; type: in vivo, Malva sylvestris; conditions: Preemergence, 0 to 100 scale
Method in brief: as §2

[8] = tested on: winter wheat; assay: Test E winter wheat; type: in vivo, Triticum aestivum; conditions: Postemergence; for Plant response rating, Wheat (winter): 0 to 100 scale
Method in brief: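 Plants were grown under normal greenhouse practice; for postemergence, in sandy loam soil mixed 60:40 with potting mix, treated at the 1- to 4-leaf stage. The compound was in a non-phytotoxic solvent carrying a surfactant. After roughly 21 to 28 days plants were scored visually against untreated plants.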

[9] = tested on: Green foxtail; assay: Test D green foxtail; type: in vivo
Method in brief: as §2

[10] = tested on: blackgrass; assay: Test E blackgrass; type: in vivo, Alopecurus myosuroides; conditions: Preemergence
[11] = tested on: green foxtail; assay: Test E green foxtail; type: in vivo, Setaria viridis; conditions: Preemergence
[12] = tested on: Italian ryegrass; assay: Test E Italian ryegrass; type: in vivo, Lolium multiflorum; conditions: Preemergence
[13] = tested on: winter wheat; assay: Test E winter wheat; type: in vivo, Triticum aestivum; conditions: Preemergence
[14] = tested on: wild oat; assay: Test E wild oat; type: in vivo, Avena fatua; conditions: Preemergence
[15] = tested on: winter barley; assay: Test E winter barley; type: in vivo, Hordeum vulgare; conditions: Preemergence
[16] = Preemergence, Rate 62 g/ha, scale of 0 to 10 where 0 is no effect and 10 is complete control
[17] = Preemergence, Rate 250 g/ha, scale of 0 to 10 where 0 is no effect and 10 is complete control
[18] = Preemergence, Rate 500 g/ha, scale of 0 to 10 where 0 is no effect and 10 is complete control
[19] = Rate 62 g/ha, Postemergence, scale of 0 to 10 where 0 is no effect and 10 is complete control
[20] = Rate 125 g/ha, Preemergence, scale of 0 to 10 where 0 is no effect and 10 is complete control
[21] = Rate 500 g/ha, Postemergence, scale 0 to 10, 0 no effect, 10 complete control
[22] = Rate 16 g/ha, 0 no injury, 100 complete control
[23] = Rate 32 g/ha, 0 no injury, 100 complete control
[24] = Rate 64 g/ha, 0 no injury, 100 complete control
[25] = Rate 125 g/ha, 0 no injury, 100 complete control
[26] = Rate 64 g/ha, Preemergence; 0 to 100 scale, 0 no injury, 100 complete control
[27] = Rate 125 g/ha, Preemergence; 0 to 100 scale, 0 no injury, 100 complete control
[28] = Rate 31 g/ha, 0 to 100 scale, 0 no effect, 100 complete control
[29] = Rate 62 g/ha, 0 to 100 scale, 0 no effect, 100 complete control
[30] = Rate 125 g/ha, 0 to 100 scale (0 no effect, 100 complete control)
[31] = Rate 500 g/ha, 0 to 100 scale where 0 is no effect and 100 is complete control

CC(C)N(C(=O)n1oc(=O)n(C2CC2)c1=O)c1ccc(F)cc1 [Compound 242]
10: Plant response rating, Morningglory [1, 18] | Redroot pigweed plant response rating [2, 17] | Plant response rating, Redroot pigweed [2, 18] | Redroot pigweed plant response rating [2, 20] | Plant response rating, Wild oats [3, 18] | Spanishneedles plant response rating [6, 25] | Plant response rating, Spanishneedles ([6]; Rate 250 g/ha) | Plant response rating, Wheat (winter) ([8]; Rate 125 g/ha, 0 is no effect, 100 is complete control) | Wheat (winter) plant response rating ([8]; Rate 250 g/ha, 0 to 100 scale where 0 is no effect and 100 is complete control)
70: Plant response rating, Guineagrass [5, 22] | Plant response rating, Blackgrass [10, 29] | Plant response rating, Green foxtail [11, 30] | Plant response rating, I. Ryegrass [12, 29]
65: Plant response rating, Alexandergrass [4, 22] | Plant response rating, Wheat (winter) ([8]; Rate 62 g/ha) | Plant response rating, I. Ryegrass [12, 28] | Plant response rating, Wheat (winter) [13, 30]
4: Plant response rating (0 to 10; 0 is no effect, 10 is complete control), Redroot pigweed ([2]; Rate 250 g/ha, Postemergence)
98: Plant response rating, Alexandergrass [4, 25] | Plant response rating, Guineagrass [5, 24] | Plant response rating, Blackgrass [10, 31] | Green foxtail plant response rating (0 to 100 scale) ([11]; Rate 250 g/ha) | I. Ryegrass plant response rating (0 to 100 scale) ([12]; Rate 250 g/ha) | Wild oat plant response rating (0 to 100 scale) ([14]; Rate 250 g/ha)
8: Morningglory plant response rating [1, 21] | Redroot pigweed plant response rating [2, 21] | Wild oats plant response rating [3, 21]
40: Plant response rating, Spanishneedles ([6]; Rate 500 g/ha) | Plant response rating, Wheat (winter) [13, 29] | Plant response rating, Barley (winter) [15, 30]
85: Plant response rating, Alexandergrass [4, 23] | Plant response rating, Guineagrass [5, 23] | Plant response rating, Tall Mallow ([7]; Rate 500 g/ha) | Plant response rating, Barley (winter) [15, 31]
50: Plant response rating, Green foxtail [11, 28] | Plant response rating, Wild oat [14, 28]
100: Plant response rating, Alexandergrass [4, 24] | Plant response rating, Alexandergrass ([4]; Rate 250 g/ha) | Plant response rating, Alexandergrass ([4]; Rate 500 g/ha) | Plant response rating, Guineagrass [5, 25] | Plant response rating, Guineagrass ([5]; Rate 250 g/ha) | Plant response rating, Guineagrass ([5]; Rate 500 g/ha) | Plant response rating, Green foxtail ([9]; Preemergence; Rate 32 g/ha; 0 to 100 scale, 0 no injury, 100 complete control) | Green foxtail plant response rating [9, 26] | Plant response rating, Green foxtail [9, 26] | Green foxtail plant response rating [9, 27] | Plant response rating, Green foxtail [9, 27] | Plant response rating, Green foxtail ([9]; Rate 250 g/ha; Preemergence; 0 to 100 scale) | Plant response rating, Green foxtail ([9]; Rate 500 g/ha, Preemergence; 0 to 100 scale) | Blackgrass plant response rating (0 to 100 scale) ([10]; Rate 250 g/ha) | Plant response rating, Green foxtail [11, 31] | Plant response rating, I. Ryegrass [12, 31] | Plant response rating, Wild oat [14, 31]
95: Plant response rating, Blackgrass [10, 30] | Plant response rating, I. Ryegrass [12, 30] | Plant response rating, Wheat (winter) [13, 31]
55: Plant response rating, Wheat (winter) ([8]; Rate 31 g/ha, 0 no effect, 100 complete control) | Plant response rating, Blackgrass [10, 28] | Wheat (winter) plant response rating (0 to 100 scale) ([13]; Rate 250 g/ha)
7: Plant response rating (0 to 10; 0 is no effect, 10 is complete control), Morningglory ([1]; Rate 250 g/ha, Postemergence) | Wild oats plant response rating [3, 16]
30: Plant response rating, Wheat (winter) [13, 28] | Plant response rating, Barley (winter) [15, 28] | Plant response rating, Barley (winter) [15, 29]
5: Morningglory plant response rating [1, 17]
9: Redroot pigweed plant response rating [2, 16] | Wild oats plant response rating [3, 17] | Wild oats plant response rating [3, 20]
90: Plant response rating, Wheat (winter) ([8]; Rate 500 g/ha, 0 is no effect, 100 is complete control)
2: Morningglory plant response rating [1, 16] | Morningglory plant response rating [1, 20]
60: Plant response rating, Tall Mallow ([7]; Rate 250 g/ha) | Plant response rating, Wild oat [14, 29] | Plant response rating, Wild oat [14, 30] | Barley (winter) plant response rating (0 to 100 scale) ([15]; Rate 250 g/ha)
80: Plant response rating, Green foxtail ([9]; Preemergence; Rate 16 g/ha; 0 to 100 scale, 0 no injury, 100 complete control) | Plant response rating, Green foxtail ([9]; Rate 16 g/ha; Preemergence; 0 to 100 scale, 0 no injury, 100 complete control)
0: Morningglory plant response rating [1, 19] | Redroot pigweed plant response rating [2, 19] | Wild oats plant response rating [3, 19] | Plant response rating, Spanishneedles [6, 22] | Plant response rating, Spanishneedles [6, 23] | Spanishneedles plant response rating [6, 24] | Plant response rating, Tall Mallow [7, 22] | Plant response rating, Tall Mallow [7, 23] | Tall Mallow plant response rating [7, 24] | Tall Mallow plant response rating [7, 25]
